Source: ChEMBL document CHEMBL1201862, “PubChem BioAssay data set” (2004)
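Briefly, cells in 96-well plates were exposed to five compound concentrations for 48 h, and endpoints were estimated by linear interpolation. GI50 marks 50% less growth.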 Activity calls are given as the source filed them. No stated cut-off is given here; in the data, active = GI50 up to about 1.1 µM and inactive = higher.

Legend:
Assay in all cases: inhibition of tumour cell growth, NCI panel, 48 h
A498 = tested on: A498
DLD-1 = tested on: DLD-1
A549 = tested on: A549
RXF 393 = tested on: RXF 393
HCT-116 = tested on: HCT-116
CAKI-1 = tested on: CAKI-1
HCT-15 = tested on: HCT-15
SK-MEL-2 = tested on: SK-MEL-2
K562 = tested on: K562
NCI-H226 = tested on: NCI-H226
NCI-H23 = tested on: NCI-H23
SK-MEL-28 = tested on: SK-MEL-28
LXFL 529 = tested on: LXFL 529
KM12 = tested on: KM12
UACC-257 = tested on: UACC-257
HCC 2998 = tested on: HCC 2998
MOLT-4 = tested on: MOLT-4
ACHN = tested on: ACHN
EKVX = tested on: EKVX
NCI-H460 = tested on: NCI-H460
RPMI-8226 = tested on: RPMI-8226
OVCAR-5 = tested on: OVCAR-5
NCI-H522 = tested on: NCI-H522
SW-620 = tested on: SW-620
SNB-78 = tested on: SNB-78
COLO 205 = tested on: COLO 205
LOX IMVI = tested on: LOX IMVI
SF-295 = tested on: SF-295
OVCAR-3 = tested on: OVCAR-3
SF-539 = tested on: SF-539
OVCAR-4 = tested on: OVCAR-4
SNB-19 = tested on: SNB-19
SR = tested on: SR
SK-MEL-5 = tested on: SK-MEL-5
SN12C = tested on: SN12C
DMS-114 = tested on: DMS-114
UO-31 = tested on: UO-31
UACC-62 = tested on: UACC-62
OVCAR-8 = tested on: OVCAR-8
SK-OV-3 = tested on: SK-OV-3
HOP-92 = tested on: HOP-92
SF-268 = tested on: SF-268
IGROV-1 = tested on: IGROV-1
CCRF-CEM = tested on: CCRF-CEM
HT-29 = tested on: HT-29
Malme-3M = tested on: Malme-3M
HOP-62 = tested on: HOP-62
M14 = tested on: M14
U-251 = tested on: U-251
786-0 = tested on: 786-0
KM-20L2 = tested on: KM-20L2
TK-10 = tested on: TK-10
SNB-75 = tested on: SNB-75
DMS-273 = tested on: DMS-273
HL-60 = tested on: HL-60
HOP-18 = tested on: HOP-18
M19-MEL = tested on: M19-MEL

## O=C(Nc1cccc([N+](=O)[O-])c1)/C(=N\NC(=O)c1ccncc1)c1nc2ccc([N+](=O)[O-])cc2nc1O
A498
  GI50: > 100 µM (inactive)
DLD-1
  GI50: > 10 µM (inactive)
A549
  GI50: 39.5 µM (inactive)
RXF 393
  GI50: 60 µM (inactive)
HCT-116
  GI50: 84.3 µM (inactive)
CAKI-1
  GI50: 38.6 µM (inactive)
HCT-15
  GI50: 35 µM
SK-MEL-2
  GI50: > 100 µM (inactive)
K562
  GI50: 21.5 µM (inactive)
NCI-H226
  GI50: 42.4 µM (inactive)
NCI-H23
  GI50: 68.1 µM (inactive)
SK-MEL-28
  GI50: 29.2 µM (inactive)
LXFL 529
  GI50: 35.6 µM (inactive)
KM12
  GI50: 42.2 µM (inactive)
UACC-257
  GI50: 46.7 µM (inactive)
HCC 2998
  GI50: 35.4 µM (inactive)
MOLT-4
  GI50: 46.9 µM (inactive)
ACHN
  GI50: 19.7 µM (inactive)
EKVX
  GI50: 38 µM (inactive)
NCI-H460
  GI50: 54 µM (inactive)
RPMI-8226
  GI50: 49.4 µM (inactive)
OVCAR-5
  GI50: 77.3 µM (inactive)
NCI-H522
  GI50: 8.59 µM (inactive)
SW-620
  GI50: 77.3 µM (inactive)
SNB-78
  GI50: > 100 µM (inactive)
COLO 205
  GI50: > 100 µM (inactive)
LOX IMVI
  GI50: 27.6 µM (inactive)
SF-295
  GI50: 33.8 µM (inactive)
OVCAR-3
  GI50: > 100 µM (inactive)
SF-539
  GI50: 32.8 µM (inactive)
OVCAR-4
  GI50: > 100 µM (inactive)
SNB-19
  GI50: > 100 µM (inactive)
SR
  GI50: 42.7 µM (inactive)
SK-MEL-5
  GI50: 38 µM (inactive)
SN12C
  GI50: > 100 µM (inactive)
DMS-114
  GI50: 13.9 µM (inactive)
UO-31
  GI50: 21.9 µM (inactive)
UACC-62
  GI50: 58.7 µM (inactive)
OVCAR-8
  GI50: 50.1 µM (inactive)
SK-OV-3
  GI50: > 100 µM (inactive)
HOP-92
  GI50: 12.4 µM (inactive)
SF-268
  GI50: 40.7 µM (inactive)
IGROV-1
  GI50: > 100 µM (inactive)
CCRF-CEM
  GI50: 14.7 µM (inactive)
HT-29
  GI50: 74.1 µM (inactive)
Malme-3M
  GI50: > 100 µM (inactive)
HOP-62
  GI50: 70 µM (inactive)
M14
  GI50: > 100 µM (inactive)
U-251
  GI50: 71.3 µM (inactive)
786-0
  GI50: > 100 µM (inactive)

## CC1(c2ccc[n+](Cc3ccccc3)c2)OCCO1
A498
  GI50: > 100 µM (inactive)
DLD-1
  GI50: > 100 µM (inactive)
KM-20L2
  GI50: > 100 µM (inactive)
A549
  GI50: > 100 µM (inactive)
RXF 393
  GI50: > 100 µM (inactive)
HCT-116
  GI50: > 100 µM (inactive)
CAKI-1
  GI50: > 100 µM (inactive)
HCT-15
  GI50: > 100 µM
SK-MEL-2
  GI50: > 100 µM (inactive)
K562
  GI50: > 100 µM (inactive)
NCI-H226
  GI50: > 100 µM (inactive)
NCI-H23
  GI50: > 100 µM (inactive)
LXFL 529
  GI50: > 100 µM (inactive)
KM12
  GI50: > 100 µM (inactive)
TK-10
  GI50: > 100 µM (inactive)
UACC-257
  GI50: > 100 µM (inactive)
SNB-75
  GI50: > 100 µM (inactive)
HCC 2998
  GI50: > 100 µM (inactive)
MOLT-4
  GI50: > 100 µM (inactive)
ACHN
  GI50: > 100 µM (inactive)
EKVX
  GI50: > 100 µM (inactive)
NCI-H460
  GI50: > 100 µM (inactive)
RPMI-8226
  GI50: > 100 µM (inactive)
OVCAR-5
  GI50: > 100 µM (inactive)
NCI-H522
  GI50: > 100 µM (inactive)
SW-620
  GI50: > 100 µM (inactive)
DMS-273
  GI50: > 100 µM (inactive)
SNB-78
  GI50: > 100 µM (inactive)
COLO 205
  GI50: > 100 µM (inactive)
LOX IMVI
  GI50: > 100 µM (inactive)
SF-295
  GI50: > 100 µM (inactive)
OVCAR-3
  GI50: > 100 µM (inactive)
SF-539
  GI50: > 100 µM (inactive)
HL-60
  GI50: > 100 µM (inactive)
OVCAR-4
  GI50: > 100 µM (inactive)
SNB-19
  GI50: > 100 µM (inactive)
HOP-18
  GI50: > 100 µM (inactive)
SR
  GI50: > 100 µM (inactive)
SK-MEL-5
  GI50: > 100 µM (inactive)
SN12C
  GI50: > 100 µM (inactive)
UO-31
  GI50: > 100 µM (inactive)
UACC-62
  GI50: > 100 µM (inactive)
OVCAR-8
  GI50: > 100 µM (inactive)
SK-OV-3
  GI50: > 100 µM (inactive)
IGROV-1
  GI50: > 100 µM (inactive)
CCRF-CEM
  GI50: > 100 µM (inactive)
HT-29
  GI50: > 100 µM (inactive)
Malme-3M
  GI50: > 100 µM (inactive)
M19-MEL
  GI50: > 100 µM (inactive)
HOP-62
  GI50: > 100 µM (inactive)
M14
  GI50: > 100 µM (inactive)
U-251
  GI50: > 100 µM (inactive)
786-0
  GI50: > 100 µM (inactive)

## COc1cc(Cc2c(C)cc(OC)c3[nH]c4ccccc4c23)cc2c1[nH]c1ccccc12
RPMI-8226
  GI50: 9.95 µM (inactive)
OVCAR-5
  GI50: 4.99 µM (inactive)
SNB-78
  GI50: 5.79 µM (inactive)
OVCAR-3
  GI50: 5.42 µM (inactive)
SNB-19
  GI50: 8.85 µM (inactive)
DMS-114
  GI50: 10.5 µM (inactive)
OVCAR-8
  GI50: 4.57 µM (inactive)

## Cc1ccc2nc3c(Cl)c(C)c(=O)cc-3sc2c1
A498
  GI50: > 100 µM (inactive)
A549
  GI50: 70.5 µM (inactive)
RXF 393
  GI50: 21.5 µM (inactive)
CAKI-1
  GI50: > 10 µM (inactive)
K562
  GI50: 26.9 µM (inactive)
SK-MEL-28
  GI50: > 10 µM (inactive)
MOLT-4
  GI50: 10.7 µM (inactive)
RPMI-8226
  GI50: 23 µM (inactive)
NCI-H522
  GI50: 35.3 µM (inactive)
SW-620
  GI50: 83.4 µM (inactive)
DMS-273
  GI50: 76 µM (inactive)
COLO 205
  GI50: > 10 µM (inactive)
LOX IMVI
  GI50: 42.1 µM (inactive)
SF-295
  GI50: 41.2 µM (inactive)
HL-60
  GI50: 26.4 µM (inactive)
HOP-18
  GI50: > 10 µM (inactive)
SR
  GI50: > 10 µM (inactive)
SK-MEL-5
  GI50: 60.3 µM (inactive)
UO-31
  GI50: 52.5 µM (inactive)
OVCAR-8
  GI50: 51.1 µM (inactive)
SK-OV-3
  GI50: > 10 µM (inactive)
HOP-92
  GI50: 64 µM (inactive)
IGROV-1
  GI50: > 10 µM (inactive)
CCRF-CEM
  GI50: 7.18 µM (inactive)
